{"source": "patent US9241492B2", "about": "“Bioactive acid agrichemical compositions and use thereof” (Sciessent LLC, priority 2007, dated 2016)", "system": "E. amylovora 153N", "assay": "Fire blight on Snow Drift crabapple trees (Example 311)", "format": "in vivo", "conditions": "rate 5 lbs/a (2.27 kg/a)", "method": "A study of the bioefficacy of the various agrichemical compositions, including bioactive acid solutions and blends thereof with an antibiotic agrichemical, were evaluated to assess their bioefficacy against fire blight on crabapples. The study was conducted on 5 year old Snow Drift crabapple trees, with each of the compositions being applied to ten trees in two-subplots of five trees, four different times: at 100% bloom—day 1, a second application was made on day 4, a third on day 11 and a final treatment on day 19. The trees were inoculated with E. amylovora 153N at a concentration of 4×10^6 cells per milliliter on day 1, following drying of the treatment, with the inoculation being repeated on day 13. Evaluation for fire blight was completed on 100 blossoms for each of the subplots on day 12, day 19 and day 27. Additionally, the incidence of shoot infection and the length of cankers were evaluated on day 63.\nThe test compositions were prepared by forming solutions of the bioactive agents. Two different dilutions of the MI2 bioactive were evaluated, the first employing 94.46 ml/gallon (25 ml/l) of water (5 ppm of each metal) and the second 188.9 ml/gallon (50 ml/l) of water (10 ppm of each metal). A streptomycin product (17% concentrated) was diluted at a rate of 0.049 lbs/gallon ([…]) (200 ppm). Finally, copper hydroxide was diluted at a rate of 1 lb/gallon (119.8 g/l). Each of the compositions and blends were spray applied at a rate of 50 gallons (189.3 l) pre acre. The results are presented as the mean of the counts."}
{"smiles": "[Cu+2].[OH-].[OH-]", "note": "[copper hydroxide]", "values": [{"measurement": "Blossom Incidence Day 12", "setting": "day 12, mean of counts per 100 blossoms", "value": 3.1}, {"measurement": "Blossom Incidence Day 19", "setting": "day 19", "value": 2.2}, {"measurement": "Blossom Incidence Day 27", "setting": "day 27", "value": 9.0}, {"measurement": "Canker Size Day 63", "setting": "day 63", "value": 0.0, "unit": "cm"}, {"measurement": "Shoot Incidence Day 63", "setting": "day 63", "value": 1.0}]}
